From US12594270B2, “Schizophrenic disorder treatment using combination therapy” (Cambridge Cognition Limited, priority 2019, dated 2026)

Key:
C57BL/6 mice = assay: MK801 induced abnormally persistent latent inhibition; format: in vivo; settings: 4 tone-shock pairings to produce low LI
Experimental: C57BL/6 mice will be used to investigate latent inhibition (LI) conditioned emotional response cessation of drinking model in mice as described in, e.g., Bay-Richter, et al., Enhanced Latent Inhibition in Dopamine Receptor-Deficient Mice is Sex-Specific for the D1 but not D2 Receptor Subtype: Implications for Antipsychotic Drug Action, Int. J. Neuropsychopharmacol. […] On Day 1 to Day 6, animals will undergo lick training where mice will have access to water in a chamber for 15 minutes and the number of licks per animal will be recorded. […] One group will receive 20 presentations [determined from prior experiments to produce reduced LI in controls] of a 5 second 85 dB tone with a 15 second inter-stimulus interval (pre-exposed group, PE); a control group of non-pre-exposed (NPE) mice will be placed in a testing chamber with access to water withdrawn for an identical period of time but will not receive a tone pre-exposure. […] Number of licks for each animal will be recorded and time taken to complete 80-90 licks (A) and 90-100 licks (B) recorded. […] A suppression ratio (SR) will be calculated according to the formula A/(A+B) yielding a scale of […]. […]
In a sixth series of experiments, the ability of the combined Tropisetron and Varenicline treatment to reverse the MK801 induced abnormally persistent latent inhibition effect will be assessed. […]

[1] = cited from earlier work

C[C@]12N[C@H](Cc3ccccc31)c1ccccc12 [MK801]
effect of MK801 on latent inhibition (C57BL/6 mice): produce abnormally persistent latent inhibition

CN1[C@@H]2CC[C@H]1C[C@@H](OC(=O)c1c[nH]c3ccccc13)C2 [Tropisetron]
absorption from the gastrointestinal tract ([1]; background statement): almost completely absorbed
off-target gastrointestinal side effects ([1]; chronic administration, due to 5-HT3 receptor inhibitory activity): a reduction in gut transit and constipation
cognitive effects in patients with schizophrenia ([1]; patients with schizophrenia, background statement): some pro-cognitive effects
